Measured values: US20240285545A1, “NANOSUSPENSION FORMULATION FOR TREATMENT OF PULMONARY FIBROSIS” (The Johns Hopkins University, priority 2023, published 2024)

Key:
[1] = oral administration of 100 mg/kg NTB, prior studies; cited from earlier work
[2] = free-base form; cited from earlier work
silicotic animals = details: daily oral 100 mg/kg; model with lower silica dose (2.5 mg/mouse); cited from earlier work
[3] = tested on: silica-induced pulmonary fibrosis model; assay: Therapeutic efficacy in silica-induced pulmonary fibrosis model (histology, lung mechanics); type: in vivo, C57BL/6 mice; details: oral 100 mg/kg daily
Description: The Study design for assessing the therapeutic efficacy of NTB-NS in a preclinical silica-induced pulmonary fibrosis model is shown in FIG. 7. The silicosis model was established by a single intratracheal instillation of silica microparticles (800 mg/kg) into the lungs of C57BL/6 mice (Silicosis); in parallel, healthy control animals received saline in an identical manner (Control). Fifteen days after the silica instillation, animals were randomly assigned to different groups to receive oral daily doses of NTB-Esy at 100 mg/kg or intratracheal NTB-NS at a NTB dose of 0.1 or 1 mg/kg every 72 hours. Lungs were harvested for analysis at Day 34. IT: intratracheal; OR: oral. […]
For lung mechanics analysis at the end of treatments, mice were sedated with diazepam (1 mg/kg, intraperitoneal), anesthetized with thiopenthal sodium (20 mg/kg, intraperitoneal), tracheotomized, paralyzed with vecuronium bromide (0.005 mg/kg, intravenous), and ventilated with a constant flow ventilator (Samay VR 15, Montevideo, Uruguay) using the following parameters: frequency 100 breaths/min; tidal volume 0.2 mL; fraction of inspired oxygen 0.21. […] Data were analyzed using ANADAT data analysis software (RHT-InfoData Inc., Montreal Canada).
For histological analysis, left lung tissues were fixed with 4% paraformaldehyde and embedded in paraffin blocks. […] The granuloma fraction was calculated as follows: […]

Row | Structure (SMILES) | Amount of drug available in mouse lungs [1] | Aqueous solubility [2] | Fibrotic score in the lungs of silicotic animals (silicotic animals) | Area of collagen deposition in alveolar septa versus untreated silicotic animals [3] | Static lung elastance (Est,L) [3]
1 | COC(=O)c1ccc2c(c1)NC(=O)/C2=C(\Nc1ccc(N(C)C(=O)CN2CCN(C)CC2)cc1)c1ccccc1 [NTB, Nintedanib] | approximately 2.5 μg | low aqueous solubility | significantly reduces | – | –
2 | CCS(=O)(=O)O.COC(=O)c1ccc2c(c1)NC(=O)/C2=C(\Nc1ccc(N(C)C(=O)CN2CCN(C)CC2)cc1)c1ccccc1 [NTB-Esy, NTB Esylate] | – | – | – | unlike 100 mg/kg oral NTB-Esy, significantly reduced | unlike oral NTB-Esy (100 mg/kg, daily), significantly decreased
